According to ChEMBL document CHEMBL5257089, “Gamabufotalin Induces Apoptosis and Cytoprotective Autophagy through the mTOR Signaling Pathway in Hepatocellular Carcinoma” (J Nat Prod, 2023):
Calls of active or inactive are those of the source. The rule behind the calls is not given here.

Assays:
[1] = test system: Hep 3B2; assay: Induction of autophagic flux in human Hep3B cells assessed as increase in number of autophagic vesicles at 10 nM by transmission electron microscopic analysis; format: functional, cell-based
[2] = test system: Hep 3B2; assay: Induction of autophagic flux in human Hep3B cells assessed as rescue of LC3-II accumulation at 10 uM incubated for 48 hrs in presence of gamabufotalin by Western blot analysis; format: functional, cell-based
[3] = test system: Hep 3B2; assay: Induction of apoptosis in human Hep3B cells assessed as viable cells at 10 nM incubated for 48 hrs in presence of gamabufotalin by Annexin V-FITC/PI staining based flow cytometry method (reference value: 94.0%); format: functional; details: read-out: Activity
[4] = test system: Huh-7; assay: Induction of apoptosis in human Huh-7 cells assessed as necrotic cells at 10 nM incubated for 48 hrs in presence of gamabufotalin by Annexin V-FITC/PI staining based flow cytometry method (reference value: 1.0%); format: functional
[5] = test system: Hep 3B2; assay: Induction of apoptosis in human Hep3B cells assessed as decrease in bcl-2 level at 10 nM incubated for 48 hrs in presence of gamabufotalin by immunoblot analysis; format: functional, cell-based
[6] = test system: Huh-7; assay: Induction of autophagy in human Huh-7 cells assessed as rescue of ULK1 phosphorylation level at upto 10 nM incubated for 48 hrs in presence of gamabufotalin by immunoblot method; format: functional, cell-based
[7] = test system: Hep 3B2; assay: Antiproliferative activity against human Hep3B cells assessed as cell viability incubated for 24 hrs by CCK-8; format: functional, cell-based
[8] = test system: Huh-7; assay: Antiproliferative activity against human Huh-7 cells assessed as cell viability incubated for 24 hrs by CCK-8; format: functional, cell-based; details: Huh-7, 24 h
[9] = test system: Huh-7; assay: Induction of morphological changes in human Huh-7 cells assessed as adherent cells at upto 25 nM incubated for 48 hrs by bright field imaging analysis; format: functional, cell-based
[10] = test system: Huh-7; assay: Inhibition of colony formation in human Huh-7 cells at upto 25 uM incubated for 48 hrs by crystal violet staining based analysis; format: functional, cell-based
[11] = test system: Hep 3B2; assay: Induction of apoptosis in human Hep3B cells assessed as early apoptotic cells at 20 nM incubated for 48 hrs by Annexin V-FITC/PI staining based flow cytometry method (reference value: 3.9%); format: functional
[12] = test system: Hep 3B2; assay: Induction of apoptosis in human Hep3B cells assessed as necrotic cells at 20 nM incubated for 48 hrs by Annexin V-FITC/PI staining based flow cytometry method (reference value: 0.2%); format: functional
[13] = test system: Huh-7; assay: Induction of apoptosis in human Huh-7 cells assessed as increase in cleaved PARP expression at upto 25 nM incubated for 48 hrs by Western blot analysis; format: functional, cell-based
[14] = test system: Huh-7; assay: Induction of apoptosis in human Huh-7 cells assessed as increase in Bcl-2 expression at upto 25 nM incubated for 48 hrs by Western blot analysis; format: functional, cell-based
[15] = test system: Hep 3B2; assay: Induction of apoptosis in human Hep3B cells assessed as early apoptotic cells at 25 nM measured after 48 hrs by annexin V-FITC/Propidium iodide staining based flow cytometric analysis (reference value: 1.6%); format: functional
[16] = test system: Huh-7; assay: Induction of apoptosis in human Huh-7 cells assessed as necrotic cells at 25 nM measured after 48 hrs in presence of z-VAD-FMK by annexin V-FITC/Propidium iodide staining based flow cytometric analysis (reference value: 0.0%); format: functional
[17] = test system: Hep 3B2; assay: Induction of autophagic flux in human Hep3B cells harbouring mCherry-egfp-LC3 assessed as increase in red puncta at 25 nM incubated for 15 mins by laser scanning confocal microscopic analysis; format: functional, cell-based
[18] = test system: Huh-7; assay: Induction of autophagic flux in human Huh-7 cells assessed as decrease in p62 expression at upto 25 nM incubated for 48 hrs by Western blot analysis; format: functional, cell-based
[19] = test system: Hep 3B2; assay: Induction of autophagic flux in human Hep3B cells assessed as rescue of LC3-II accumulation at 25 uM incubated for 48 hrs in presence of chloroquine by Western blot analysis; format: functional, cell-based
[20] = test system: Hep 3B2; assay: Induction of apoptosis in human Hep3B cells assessed as late apoptotic cells at 25 nM incubated for 48 hrs by Annexin V-FITC/PI staining based flow cytometry method (reference value: 3.5%); format: functional
[21] = test system: Huh-7; assay: Induction of apoptosis in human Huh-7 cells assessed as necrotic cells at 25 nM incubated for 48 hrs by Annexin V-FITC/PI staining based flow cytometry method (reference value: 1.0%); format: functional
[22] = test system: Huh-7; assay: Induction of apoptosis in human Huh-7 cells assessed as viable cells at 25 nM incubated for 48 hrs in presence of chloroquine by Annexin V-FITC/PI staining based flow cytometry method (reference value: 91.5%); format: functional; details: read-out: Activity
[23] = test system: Hep 3B2; assay: Induction of apoptosis in human Hep3B cells assessed as increase in PARP level at 25 nM incubated for 48 hrs in presence of chloroquine by immunoblot analysis; format: functional, cell-based
[24] = test system: Hep 3B2; assay: Induction of apoptosis in human Hep3B cells assessed as reduction in Bcl-2 level at 25 nM incubated for 48 hrs in presence of chloroquine by immunoblot analysis; format: functional, cell-based
[25] = test system: Hep 3B2; assay: Induction of apoptosis in human Hep3B cells assessed as viable cells at 25 nM incubated for 48 hrs by Annexin V-FITC/PI staining based flow cytometry method (Rvb =95.7%); format: functional; details: read-out: Activity
[26] = test system: Hep 3B2; assay: Induction of apoptosis in human Hep3B cells assessed as late apoptotic cells at 25 nM incubated for 48 hrs by Annexin V-FITC/PI staining based flow cytometry method (reference value: 2.2%); format: functional
[27] = test system: Hep 3B2; assay: Induction of apoptosis in human Hep3B cells assessed as viable cells at 25 nM incubated for 48 hrs in presence of 4,6-dimorpholino-N-(4-nitrophenyl)-1,3,5-triazin-2-amine by Annexin V-FITC/PI staining based flow cytometry method (Rvb =95.7%); format: functional; details: read-out: Activity
[28] = test system: Hep 3B2; assay: Induction of apoptosis in human Hep3B cells assessed as upregulation of cleaved PARP level […] incubated for 48 hrs in presence of 4,6-dimorpholino-N-(4-nitrophenyl)-1,3,5-triazin-2-amine by immunoblot analysis; format: functional, cell-based
[29] = test system: Huh-7; assay: Induction of apoptosis in human Huh-7 cells assessed as reduction in bcl-2 level […] incubated for 48 hrs in presence of 4,6-dimorpholino-N-(4-nitrophenyl)-1,3,5-triazin-2-amine by immunoblot analysis; format: functional, cell-based
[30] = test system: Huh-7; assay: Induction of autophagy in human Huh-7 cells assessed as rescue of ULK1 phosphorylation level at upto 25 nM incubated for 48 hrs in presence of chloroquine by immunoblot method; format: functional, cell-based
[31] = test system: Hep 3B2; assay: Induction of autophagy in human Hep3B cells harbouring mCherry-egfp-LC3 assessed as reduction in yellow puncta ratio at 25 nM incubated for 15 mins in presence of 4,6-dimorpholino-N-(4-nitrophenyl)-1,3,5-triazin-2-amine by laser scanning confocal microscopic analysis; format: functional, cell-based
[32] = test system: Huh-7; assay: Induction of autophagy in human Huh-7 cells assessed as upregulation of p62 at 25 uM incubated for 48 hrs in presence of 4,6-dimorpholino-N-(4-nitrophenyl)-1,3,5-triazin-2-amine by immunoblot analysis; format: functional, cell-based
[33] = Toxicity in mouse assessed as effect on body weight at 5 mg/kg,ip administered every second day for 3 weeks; format: organism-based; details: in vivo, 504 h
[34] = test system: Hep 3B2; assay: Antitumor activity against human Hep3B cells xenografted in nude mouse model assessed as downregulation of Bcl-2 expression at 5 mg/kg,ip administered every second day for 3 weeks by Western blot analysis; format: functional, organism-based

In the case of `CCN(CC)CCCC(C)Nc1ccnc2cc(Cl)ccc12` (centres undefined) [CHLOROQUINE], the Activity [1] is reported as “Active”, the Activity [2] is reported as “Active” and the viability at 0.01 µM [3] is reported as 63.9%. For the same compound, the Activity [4] was 3.4%, the Activity [5] was “Active” and the Activity [6] was “Active”.

In the case of `C[C@]12CC[C@H](O)C[C@H]1CC[C@@H]1[C@@H]2[C@H](O)C[C@]2(C)[C@@H](c3ccc(=O)oc3)CC[C@]12O` [GAMABUFOTALIN], the IC50 [7] is reported as 27 nM, the IC50 [8] is reported as 23 nM and the Activity [9] is reported as “Active”. For the same compound, the inhibition [10] was “Active”, the Activity [11] was 7.8% and the Activity [12] was 0.3%. The Activity [13] was “Active”, the Activity [14] was “Active” and the Activity [15] was 6.6%. The Activity [16] was 0.3%, the Activity [17] was “Active” and the Activity [18] was “Active”. The Activity [19] was “Active”, the Activity [20] was 13.7% and the Activity [21] was 1.1%. For the same compound, the viability at 0.025 µM [22] was 65.4%, the Activity [23] was “Active” and the Activity [24] was “Active”. It also gave a viability at 0.025 µM [25] of 77.2%, an Activity [26] of 10.9% and a viability at 0.025 µM [27] of 67.2%. For the same compound, the Activity [28] was “Active”, the Activity [29] was “Active” and the Activity [30] was “Active”. For the same compound, the Activity [31] was “Active”, the Activity [32] was “Active” and the Activity [33] was “Non-Toxic”. For the same compound, the Activity [34] was “Active”.
